Here are results for 19 compounds from patent US12686692B2, “KRas G12D inhibitors” (Mirati Therapeutics, Inc., priority 2020, dated 2026).

Broadly, the pKd is −log10 of the Kd, conventionally taken in molar units. Higher therefore signals a small Kd. One may read the pIC50 as −log10 of the IC50, conventionally taken in molar units. Read a low pIC50 as a high IC50.

Assay [1] deals with T1, KRas G12D (Homo sapiens, UniProt P01116, G12D). Put plainly: KRas G12D Surface Plasmon Resonance (SPR) Binding Assay. As to conditions: Biacore T200, biotinylated Avidin-tagged KRAS protein on SA chip, 20 C, 1:1 binding model. The protocol:
This Example illustrates that exemplary compounds of the present invention bind to KRas G12D as measured by surface plasmon resonance (SPR). Briefly, 1 L of 1.05×HBS-Mg buffer (262.5 mM BioUltra Hepes, pH 7.5, 157.5 mM NaCl, 105 mM MgCl2, 0.525 mM TCEP, […] Brij-35) was prepared and filter sterilized using a 0.22 μm bottle top filter. Approximately 50 mL of 1.05×HBS-Mg buffer was removed and saved for future dilutions. A 50 mL aliquot of DMSO (Sigma Aldrich DMSO Lot. #SHBK2079) was added and continued to stir for 10 minutes, creating the final 1.0×HBS-Mg buffer (250 mM BioUltra Hepes pH 7.5, 150 mM NaCl, 100 mM MgCl2, 0.5 mM TCEP, 0.03% Brij-35). Biacore T200 instrument was primed using 1.0×HBS-Mg buffer before docking a GE Streptavidin (SA) chip and then primed two additional times prior to beginning the immobilization step. All immobilized protein mixtures were created using 3-5 mg/mL Biotinylated Avidin-tagged KRAS protein using the following immobilization settings: SA chip type, 1 flow cells per cycle, 720 second contact time, and 5 μL/min flow rate. Normalization of the detector was also performed during the immobilization step using the GE BiaNormalize solution. All compounds were diluted to 10 mM in 100% DMSO prior to being diluted 20× in 1.05× buffer. Another 10× dilution was created using 1.0× buffer prior to performing a series of 3× dilutions to create a compound concentration curve using the following assay settings: 20 C analysis temperature, General Settings=10 Hz data collection rate and multi-detection; Assay Steps=all set to LMW kinetics; Cycle Types=LMW kinetics (60s contact time, 120s dissociation time, 100 μL/min flow rate, extra wash after injection with 50% DMSO, flow path 1,2,3,4); Flow path detection=2-1, 4-3). Data evaluation was performed using the Biacore T200 Evaluation software and data fit to 1:1 binding model.
Target sequence in this assay (P01116 1-188 isoform P01116-2 G12D): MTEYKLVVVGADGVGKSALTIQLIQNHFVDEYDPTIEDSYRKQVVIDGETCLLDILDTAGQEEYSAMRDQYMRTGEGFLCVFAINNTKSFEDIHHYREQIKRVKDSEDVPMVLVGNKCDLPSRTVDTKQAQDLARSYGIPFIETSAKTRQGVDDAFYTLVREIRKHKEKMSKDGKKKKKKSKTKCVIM

The target in assay [2] is T1, KRas G12D. Put plainly: KRas G12D Binding Assay (TR-FRET displacement of labeled tracer). Also on record: corresponding to amino acids 1:169, produced at Array BioPharma; biotin (protein is biotinylated). As to conditions: TR-FRET displacement of Cy5 labelled tracer, biotinylated GDP-loaded KRAS G12D (aa 1:169), 60 minute incubation at 22° C. In a few lines:
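Biotinylated GDP-loaded human KRAS G12D (aa 1–169) incubated with Cy5 tracer, Eu-streptavidin and compound (2% DMSO final) in 50 mM HEPES pH 7.5, 5 mM MgCl2, 0.005% Tween-20, 1 mM DTT, 60 min at 22 °C. TR-FRET ratio converted to percent of control; IC50 at 50 POC from 4-parameter logistic fit.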
Target sequence in this assay (P01116 1-169 isoform P01116-2 G12D): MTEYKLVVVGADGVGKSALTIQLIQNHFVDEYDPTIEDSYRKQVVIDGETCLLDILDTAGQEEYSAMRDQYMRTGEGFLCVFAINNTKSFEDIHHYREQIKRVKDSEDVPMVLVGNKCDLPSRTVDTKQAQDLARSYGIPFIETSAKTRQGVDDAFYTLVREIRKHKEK
(In general: TR-FRET usually uses a lanthanide donor and a delayed reading to cut background.)

Molecules are shown by their SMILES. pIC50, pKd: −log10 of the molar value.

On KRas G12D [1], `CN1CCC[C@H]1COc1nc2c(c(N3C[C@H]4CC[C@@H](C3)N4)n1)CCN(c1cncc3ccccc13)C2` [Example 57, 4-((1R,5S)-3,8-diazabicyclo[3.2.1]octan-3-yl)-7-(isoquinolin-4-yl)-2-(((S)-1-methylpyrrolidin-2-yl)methoxy)-5,6,7,8-tetrahydropyrido[3,4-d]pyrimidine] showed a pKd of 4.01. Also, the pIC50 on KRas G12D [2] was less than 5.00.
`CN1CCC[C@H]1COc1nc2c(c(N3C[C@H]4CC[C@@H](C3)N4)n1)CCN(c1nc(N)nc3ccccc13)C2` [Example 59, 4-(4-((1R,5S)-3,8-diazabicyclo[3.2.1]octan-3-yl)-2-(((S)-1-methylpyrrolidin-2-yl)methoxy)-5,8-dihydropyrido[3,4-d]pyrimidin-7(6H)-yl)quinazolin-2-amine] had a pKd at KRas G12D [1] of 3.22. The same compound had a pIC50 on KRas G12D [2] of 5.12.
On the same counts, the results for `COC1CC(N2CCc3c(nc(OC[C@@H]4CCCN4C)nc3N3C[C@H]4CC[C@@H](C3)N4)C2)c2ccccc21` (stereo partly drawn) [Example 36, 4-((1R,5S)-3,8-diazabicyclo[3.2.1]octan-3-yl)-7-(3-methoxy-2,3-dihydro-1H-inden-1-yl)-2-(((S)-1-methylpyrrolidin-2-yl)methoxy)-5,6,7,8-tetrahydropyrido[3,4-d]pyrimidine] are 4.61 and less than 5.00.
`Cc1ccc2[nH]ncc2c1N1CCc2c(nc(OC[C@@H]3CCCN3C)nc2N2C[C@H]3CC[C@@H](C2)N3)C1` [Example 3, 4-((1R,5S)-3,8-diazabicyclo[3.2.1]octan-3-yl)-7-(5-methyl-1H-indazol-4-yl)-2-(((S)-1-methylpyrrolidin-2-yl)methoxy)-5,6,7,8-tetrahydropyrido[3,4-d]pyrimidine] showed a negative logarithm of the Kd (pKd) at KRas G12D [1] of 5.20. This compound gave a pIC50 on KRas G12D [2] of 5.88.
With `CN1CCC[C@H]1COc1nc2c(c(N3C[C@H]4C/C(=C\C#N)[C@@H](C3)N4)n1)CCN(c1cccc3cccc(Cl)c13)C2` (single isomer, unassigned) [Example 89], the pKd at KRas G12D [1] was 4.57. This compound also showed a pIC50 on KRas G12D [2] of less than 5.00.
With `CN1CCC[C@H]1COc1nc2c(c(N3C[C@H]4CC[C@@H](C3)N4)n1)CCN(c1cccc3cccc(CCCO)c13)C2` [Example 79, 3-(8-(4-((1R,5S)-3,8-diazabicyclo[3.2.1]octan-3-yl)-2-(((S)-1-methylpyrrolidin-2-yl)methoxy)-5,8-dihydropyrido[3,4-d]pyrimidin-7(6H)-yl)naphthalen-1-yl)propan-1-ol], on KRas G12D [1], the pKd was 5.73. Also, the negative logarithm of the IC50 (pIC50) on KRas G12D [2] was 6.31.
Compound `CN1CCC[C@H]1COc1nc2c(c(N3C[C@H]4CC[C@@H](C3)N4)n1)CCN(c1c(F)c(O)c(F)c3ccccc13)C2` [Example 25, 4-(4-((1R,5S)-3,8-diazabicyclo[3.2.1]octan-3-yl)-2-(((S)-1-methylpyrrolidin-2-yl)methoxy)-5,8-dihydropyrido[3,4-d]pyrimidin-7(6H)-yl)-1,3-difluoronaphthalen-2-ol] showed a pKd on KRas G12D [1] of 6.07. On KRas G12D [2], this compound had a pIC50 of 5.17.
In the case of `CN1CCC[C@H]1COc1nc2c(c(N3C[C@H]4CC[C@@H](C3)N4)n1)CCN(c1cccc3ccccc13)C2` [Example 70, 4-((1R,5S)-3,8-diazabicyclo[3.2.1]octan-3-yl)-2-(((S)-1-methylpyrrolidin-2-yl)methoxy)-7-(naphthalen-1-yl)-5,6,7,8-tetrahydropyrido[3,4-d]pyrimidine], the pKd at KRas G12D [1] is 5.68. The compound also showed a pIC50 on KRas G12D [2] of 5.95.
Compound `O[C@@H]1C[C@@H]2CN(c3nc(OCCC(F)(F)F)nc4c3CCN(c3cccc5cccc(Cl)c35)C4)C[C@H]1N2` [Example 86, (1R,5R,6R)-3-(7-(8-chloronaphthalen-1-yl)-2-(3,3,3-trifluoropropoxy)-5,6,7,8-tetrahydropyrido[3,4-d]pyrimidin-4-yl)-3,8-diazabicyclo[3.2.1]octan-6-ol] had a pKd on KRas G12D [1] of 4.48. The same compound gave a pIC50 at KRas G12D [2] of 5.54.
In turn, `CN1CCC[C@H]1COc1nc2c(c(N3C[C@H]4C/C(=C/C#N)[C@@H](C3)N4)n1)CCN(c1cccc3cccc(Cl)c13)C2` (single isomer, unassigned) [Example 90] showed a pKd at KRas G12D [1] of 6.03. This compound gave a pIC50 at KRas G12D [2] of 5.83.
Regarding `CN1CCC[C@H]1COc1nc2c(c(N3C[C@H]4CC[C@@H](C3)N4)n1)CCN(C1CC(O)c3ccccc31)C2` (stereo partly drawn) [Example 35, 3-(4-((1R,5S)-3,8-diazabicyclo[3.2.1]octan-3-yl)-2-(((S)-1-methylpyrrolidin-2-yl)methoxy)-5,8-dihydropyrido[3,4-d]pyrimidin-7(6H)-yl)-2,3-dihydro-1H-inden-1-ol], the pKd at KRas G12D [1] is 3.24. Moreover, the pIC50 on KRas G12D [2] is less than 5.00.
For `CN1CCC[C@H]1COc1nc2c(c(N3C[C@H]4CC[C@@H](C3)N4)n1)CCN(c1c(O)cccc1F)C2` [Example 77, 2-(4-((1R,5S)-3,8-diazabicyclo[3.2.1]octan-3-yl)-2-(((S)-1-methylpyrrolidin-2-yl)methoxy)-5,8-dihydropyrido[3,4-d]pyrimidin-7(6H)-yl)-3-fluorophenol], the pKd at KRas G12D [1] was 3.58. Besides, the pIC50 on KRas G12D [2] is less than 5.00.
For `COc1nc2c(c(N3C[C@H]4CC[C@@H](C3)N4)n1)CCN(c1cccc3cccc(C)c13)C2` [Example 22, 4-((1R,5S)-3,8-diazabicyclo[3.2.1]octan-3-yl)-2-methoxy-7-(8-methylnaphthalen-1-yl)-5,6,7,8-tetrahydropyrido[3,4-d]pyrimidine], at KRas G12D [1], the pKd is 3.52. Besides, at KRas G12D [2], the negative logarithm of the IC50 (pIC50) is 5.10.
For the compound `CN1CCC[C@H]1COc1nc2c(c(N3C[C@H]4CC[C@@H](C3)N4)n1)CCN(c1cccc3cccc(CCCC#N)c13)C2` [Example 83, 4-(8-(4-((1R,5S)-3,8-diazabicyclo[3.2.1]octan-3-yl)-2-(((S)-1-methylpyrrolidin-2-yl)methoxy)-5,8-dihydropyrido[3,4-d]pyrimidin-7(6H)-yl)naphthalen-1-yl)butanenitrile], the pKd on KRas G12D [1] was 4.70. Moreover, on KRas G12D [2], the pIC50 was 5.18.
For `C[C@H]1CC2CN(c3nc(OC[C@@H]4CCCN4C)nc4c3CCN(c3cccc5cccc(Cl)c35)C4)C[C@H]1N2` (single isomer, unassigned) [Example 88], the negative-log Kd (pKd) on KRas G12D [1] is 5.68. For the same compound, the pIC50 on KRas G12D [2] is 5.96.
For `CN1CCC[C@H]1COc1nc2c(c(N3C[C@H]4CC[C@@H](C3)N4)n1)CCN(c1ccc(Br)c3cccc(Cl)c13)C2` [Example 74, 4-((1R,5S)-3,8-diazabicyclo[3.2.1]octan-3-yl)-7-(4-bromo-8-chloronaphthalen-1-yl)-2-(((S)-1-methylpyrrolidin-2-yl)methoxy)-5,6,7,8-tetrahydropyrido[3,4-d]pyrimidine], the pKd on KRas G12D [1] was 4.38. The compound further gave a negative-log IC50 (pIC50) at KRas G12D [2] of less than 5.00.
Take `CC1CCCc2cccc(N3CCc4c(nc(OC[C@@H]5CCCN5C)nc4N4C[C@H]5CC[C@@H](C4)N5)C3)c21` (stereo partly drawn) [Example 82, 4-((1R,5S)-3,8-diazabicyclo[3.2.1]octan-3-yl)-7-(8-methyl-5,6,7,8-tetrahydronaphthalen-1-yl)-2-(((S)-1-methylpyrrolidin-2-yl)methoxy)-5,6,7,8-tetrahydropyrido[3,4-d]pyrimidine]: the negative-log Kd (pKd) at KRas G12D [1] is 6.83. For the same compound, the pIC50 at KRas G12D [2] is 7.21.
For `Cc1ccc2cccc(N3CCc4c(nc(OC[C@@H]5CCCN5C)nc4N4C[C@H]5CC[C@@H](C4)N5)C3)c2c1` [Example 110, 4-((1R,5S)-3,8-diazabicyclo[3.2.1]octan-3-yl)-7-(7-methylnaphthalen-1-yl)-2-(((S)-1-methylpyrrolidin-2-yl)methoxy)-5,6,7,8-tetrahydropyrido[3,4-d]pyrimidine] the same measures were 5.49 and 5.50.
`CN1CCC[C@H]1COc1nc2c(c(N3C[C@H]4CC[C@@H](C3)N4)n1)CCN(c1cccc3c1CCCC3)C2` [Example 71, 4-((1R,5S)-3,8-diazabicyclo[3.2.1]octan-3-yl)-2-(((S)-1-methylpyrrolidin-2-yl)methoxy)-7-(5,6,7,8-tetrahydronaphthalen-1-yl)-5,6,7,8-tetrahydropyrido[3,4-d]pyrimidine] had a pKd on KRas G12D [1] of 5.37. For the same compound, on KRas G12D [2], the pIC50 is 5.75.
